Experimental findings from patent publication US20170307610A1, “COMPOUNDS THAT BIND DYSTROGLYCAN AND USES THEREOF” (OREGON HEALTH & SCIENCE UNIVERSITY, priority 2014, published 2017) are described below.

The subject of this test is E3D1 MECs. Nature of the test: Steady-state laminin internalization, flow cytometry. Format: cell-based, mouse. The note with it: steady-state, continuous Rhod-Ln. Here is the method:
Endocytic internalization of laminin was confirmed by multiple methods. Laminin was labeled with the pH-sensitive fluorescent label CypHer-5 (CyPher-Ln) to exclusively image internalized laminin in attached, living cells. The fluorophore CypHer-5 is non fluorescent at pH 7.4 and maximally fluorescent at pH 5.5, permitting fluorescence detection of laminin within intracellular acidic vesicles (pH 4.8-6.0). Following overnight incubation of MECs with CypHer-Ln, live cell imaging detected bright fluorescent vesicles moving rapidly within the cytoplasm (FIG. 3A). Intracellular laminin within the cytoplasm was also independently observed via removal of surface bound laminin followed by confocal imaging. MECs were exposed to 10 μg/ml Rhod-Ln for 18 hrs, trypsinized, washed with PBS/EDTA to remove surface-bound laminin, allowed to re-attach, and stained with the membrane marker FITC-concanavalin A (conA). […] This method of cell treatment permitted a quantitative, flow cytometry-based assay of laminin internalization. In this assay, cells incubated with Rhod-Ln were trypsinized, washed (as in FIG. 3B), and the remaining internal Rhod-Ln fluorescence quantified by flow cytometry. Using this assay, laminin internalization was confirmed in diverse cell types including in primary mammary epithelial cultures, mammary epithelial cell lines (E3D1, MEpG), […] fibroblasts (NIH 3T3 cells), primary astrocytes, and human cancer cell lines (breast and glioma).
To explore the dynamics of laminin internalization, steady-state time course experiments (measuring internalization in the continuous presence of labeled laminin) and pulsed time course experiments were performed. In pulsed time course experiments, the cells were exposed to exogenous Rhod-Ln at 4° C. to prevent internalization, excess unbound Rhod-Ln was washed away, and then cells were returned to 37° C. to allow synchronized internalization and trafficking to proceed. […] Following pulsed and synchronized laminin exposure, Rhod-Ln was again observed to internalize within 1 hour, but reached a maximum at 8 hours, after which the levels of internal laminin declined (FIG. 4A). After 24 hours, internal Rhod-Ln levels declined to ˜37% of the maxima, indicating degradation (MFI: 315±3.5 to 119±11.5). To determine if laminin was degraded using classical degradation pathways, pulsed time course experiments in the presence of leupeptin (lysosome inhibitor) or […] (proteasome inhibitor) were performed.
Laminin internalization could be mediated by either receptor-dependent or receptor independent mechanisms (e.g. pinocytosis). Steady-state laminin internalization was measured using flow cytometry in the presence of potential inhibitors and compared to internalization of 500S FITC-dextran, a molecule of similar molecular size to laminin known to be endocytosed by receptor-independent mechanisms. The specific inhibitor of dynamin, dynasore (Macia E et al, Dev Cell, 839-850 (2006); incorporated by reference herein), inhibited internalization of laminin by >75% (FIG. 6A). Under hypertonic sucrose, a condition known to inhibit receptor-mediated endocytosis (Heuser J E and Anderson R G, J Cell Biol 108, 389-400 (1989); incorporated by reference herein) laminin internalization was reduced by 65% (FIG. 6A). Addition of heparin, a molecule known to bind the laminin LG4-5 domain (Harrison D et al, J Biol Chem 282, 11573-11581 (2007); incorporated by reference herein), decreased laminin internalization by 69% relative to controls (FIG. 6A). […] Specifically, under steady state, laminin internalization was nearly linear throughout the 24 hour time course, whereas dextran internalization plateaued after 16 hrs.
Flow Cytometry—Cells were plated in 12 well plates at 200,000 cells/well. The following day, media was changed to serum-free media with or without 10 μg/ml rhodamine laminin or 40 μg/ml FITC-dextran (500S-Sigma-Aldrich Corp., St. Louis, Mo., USA). […]

Take “Rhod-Ln: laminin-111 labeled with NHS-rhodamine; dystroglycan binding reagent”: the “time at which internalized laminin was measurable” value was no more than 1 h and the “time to plateau of laminin internalization” value was greater than 30 h.
